Source: patent US11446254B2, “Drug carrier having self-assembled 3-D nucleic acid nanostructure” (KOREA INSTITUTE OF SCIENCE AND TECHNOLOGY, priority 2014, dated 2022)

Tested on: SCC7 cells
Format: in vivo
Conditions: 18 days therapy
Experimental: A balb/c nude mouse (5 weeks old, male) was used as an experimental animal group, and a tumor was formed by subcutaneously inoculating SCC7 cells (1.0×10^6 cells suspended in the culture medium) into the left thigh of the mouse. When the tumor volume became approximately 50 mm^3, the tumor was used for the experiment.
For the selective therapy of cancer tissue, DOX was each loaded into L-Td55 and L-Td92, which are a carrier having cancer tissue selectivity.
The therapy experiment was performed by classifying the mice into total six groups (PBS, L-Td55, L-Td92, free DOX, DOX@L-Td55, and DOX@L-Td92), and 7 mice per group were used. Before the therapy was performed each time, the tumor volume and the mouse body weight were measured. In this case, the tumor volume was calculated by a method of (minor axis^2*major axis)/2. Each sample was injected into the caudal vein of the mice completely subjected to measurement (see Slide #2 for concentration), the therapy was performed once every three days, and the therapy was performed total 6 times.

For `COc1cccc2c1C(=O)c1c(O)c3c(c(O)c1C2=O)C[C@@](O)(C(=O)CO)C[C@@H]3O[C@H]1C[C@H](N)[C@H](O)[C@H](C)O1` [free DOX, doxorubicin], the Therapeutic effect was “slight therapeutic effects”.
